Experimental data as given in patent US20240034729A9, “HETEROCYCLIC COMPOUND, INTERMEDIATE, PREPARATION METHOD THEREFOR AND APPLICATION THEREOF” (WUHAN LL SCIENCE AND TECHNOLOGY DEVELOPMENT CO., LTD., priority 2018, published 2024).
Entries after “also recorded” stand apart in the source; their conditions may differ.

What was measured:
[1] = In vitro metabolic stability, human liver microsome; type: in vitro ADME; settings: liver microsomes, 1 mg/mL liver microsome protein, 37° C., NA = essentially not metabolized, read-out: T1/2 in human liver microsome
In short: (§1)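 Compounds incubated with rat or human liver microsomes. At each time point reactions stopped with cold acetonitrile containing internal standards and centrifuged. Supernatants analysed by LC-MS to derive in vitro metabolic half-life.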

[2] = In vitro metabolic stability, rat liver microsome; type: in vitro ADME; settings: liver microsomes, 1 mg/mL liver microsome protein, 37° C., NA = essentially not metabolized, read-out: T1/2 in rat liver microsome
In short: as §1

[3] = In vitro cytotoxicity assay, CCK-8 method; type: cell-based; settings: human, HepG2 cells
In short: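 HepG2 cells at 50,000/well, grown to 80–90% confluence, exposed to compound dilutions or DMSO vehicle for 48 h at 37 °C. Viability by CCK-8 (1.5 h, 37 °C), absorbance at 450 nm; CC50 calculated.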

[4] = In vitro metabolic stability, guinea pig liver microsome; type: in vitro ADME; settings: liver microsomes, 1 mg/mL liver microsome protein, 37° C., NA = essentially not metabolized, read-out: T1/2 in guinea pig liver microsome
In short: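 Test compound incubated at 37° C. in microsomes (1 mg/mL protein) with NADPH-regenerating system (1 mM NADP, 6 mM glucose 6-phosphate, 25 U/mL G6PDH, 5 mM MgCl2). Timed aliquots quenched in cold acetonitrile with internal standards; supernatant analysed by LC-MS to derive in vitro half-life.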

[5] = tested on: Male Dunkin Hartley guinea pigs; assay: Citric acid only cough model; type: in vivo, guinea pig; parameters: Mean cough latency: unit not given beside the values; settings: for Mean number of coughs: 17.5% citric acid
Method: Male Dunkin Hartley guinea pigs (300-350 g) were placed in an animal atomization box, and then the door of the atomization box was closed while the ultrasonic atomizer (Guangdong Yuehua) was turned on. 17.5% citric acid gas was introduced into the atomization box at a maximum atomization rate (about 2 mL/min) for 20 s, and coughs of the animals within 10 min were continuously observed from the time of the start of atomization. During the 10-min observation, coughs of the animals were counted manually, and the number of coughs were judged according to cough postures of the guinea pigs, such as abdominal twitching, mouth opening, and head inclining downward abruptly. The number of coughs during the first 5 min and that during 10 min were recorded, and the cough latency of the guinea pigs, namely the time from the initiation of citric acid induction to the appearance of the first cough, was also recorded.

[6] = tested on: Male SD rats; assay: Two-bottle dysgeusia test (quinine water vs normal water); type: in vivo, rat; settings: for Quinine/tap water* 100%: Table 9, rats, single intraperitoneal injection
Method: All drinking water bottles were removed out 20 h before the start of the formal experiment, and all the animals were deprived of water until the start of the experiment. In the experiment, all the animals were randomly grouped and then subjected to a single intraperitoneal injection of a test compound or a vehicle before water was resupplied. The administration time was determined according to the Tmax of the test compound. Then the animals were placed in separate cages, and two bottles of drinking water (one bottle of normal drinking water and one bottle of 0.3 mM quinine water) were provided.

[7] = tested on: Male Dunkin Hartley guinea pigs; assay: ATP-citric acid cough model; type: in vivo, guinea pig; settings: for Number of coughs / cough inhibition (in words): compared with the vehicle group
Method: Male Dunkin Hartley guinea pigs (300-400 g) were placed into a whole-body plethysmography box to adapt for 3-5 min, then ATP atomization is carried out for 2 min, and 3 min later, 5 min of citric acid atomization was followed, with all atomization rates being about 300 uL/min. The number of coughs and the cough latency of the animals within 10 min from the start of the citric acid atomization were recorded. During the 10-min observation, coughs of the animals were counted manually, and the coughs were judged according to cough postures of the guinea pigs, such as abdominal twitching, mouth opening, head inclining downward abruptly and the like. The number of coughs during 10 min were recorded, and the cough latency of the guinea pigs was also recorded.
The animals were divided into a vehicle group, a dextromethorphan (63 mg/kg) positive group, an AF-219 (30 mg/kg) positive group and Example 173 compound (3, 10, 30 mg/kg) administration groups, and all the compounds were orally administered. Except that dextromethorphan was administered 40 min before ATP-citric acid exposure, the remaining compounds were administered 2 h before ATP-citric acid exposure.

[8] = target: hP2X2/3 (heterodimeric receptors formed by human purinergic P2X receptors subtype 2 and subtype 3) (Homo sapiens (Human), UniProt P56373+Q9UBL9); assay: FLIPR calcium assay, hP2X2/3 expressed in HEK293 cells (P2X2/3 receptor selectivity); type: cell-based
[9] = phase II clinical trial; cited from earlier work
[10] = before administration (baseline of the group)
[11] = 30 mg/kg oral, 2 h before ATP-citric acid exposure

Sequence of hP2X2/3 (heterodimeric receptors formed by human purinergic P2X receptors subtype 2 and subtype 3) (P56373 whole entry): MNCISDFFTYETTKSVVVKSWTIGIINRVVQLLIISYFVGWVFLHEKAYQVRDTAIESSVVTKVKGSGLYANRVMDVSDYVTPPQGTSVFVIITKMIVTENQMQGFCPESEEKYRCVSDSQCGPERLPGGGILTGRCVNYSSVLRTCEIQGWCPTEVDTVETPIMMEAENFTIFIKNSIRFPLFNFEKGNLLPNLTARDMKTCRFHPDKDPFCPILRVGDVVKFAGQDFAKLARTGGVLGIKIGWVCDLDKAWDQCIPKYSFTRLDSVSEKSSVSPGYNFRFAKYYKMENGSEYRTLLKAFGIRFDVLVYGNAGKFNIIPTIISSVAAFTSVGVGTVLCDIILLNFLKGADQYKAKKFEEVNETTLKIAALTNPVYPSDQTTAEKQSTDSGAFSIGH
Sequence of hP2X2/3 (heterodimeric receptors formed by human purinergic P2X receptors subtype 2 and subtype 3) (Q9UBL9 whole entry): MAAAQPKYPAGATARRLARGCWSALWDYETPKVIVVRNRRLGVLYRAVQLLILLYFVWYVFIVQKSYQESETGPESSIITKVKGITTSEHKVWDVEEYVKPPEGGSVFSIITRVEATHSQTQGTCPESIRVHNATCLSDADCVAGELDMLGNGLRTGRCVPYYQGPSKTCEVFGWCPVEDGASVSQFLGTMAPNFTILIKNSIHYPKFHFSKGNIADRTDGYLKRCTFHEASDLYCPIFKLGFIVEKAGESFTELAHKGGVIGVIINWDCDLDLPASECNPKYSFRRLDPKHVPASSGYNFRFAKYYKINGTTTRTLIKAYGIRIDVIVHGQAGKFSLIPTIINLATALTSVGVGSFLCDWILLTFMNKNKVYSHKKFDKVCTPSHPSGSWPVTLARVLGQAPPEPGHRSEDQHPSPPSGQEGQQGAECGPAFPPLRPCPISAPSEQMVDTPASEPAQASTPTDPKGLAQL

COC(=O)N1CCO[C@@H](Cc2c(-c3c(F)cc(S(N)(=O)=O)cc3F)nc3cc(Cl)ccn23)C1 [Compound 172, methyl (S)-2-((7-chloro-2-(2,6-difluoro-4-sulfamoylphenyl)imidazo[1,2-a]pyridin-3-yl)methyl)morpholine-4-carboxylate]
half-life [1]: 13.7 h | half-life [2]: 3.72 h | CC50 at 48 h [3]: 57.1 µM | half-life [4]: 6.84 h | Cough inhibition rate Vs Baseline (%) ([5]; 30 mg/kg): 50.6% | Cough inhibition rate Vs Vehicle (%) ([5]; 30 mg/kg): 43.9% | Number of coughs and cough latency (in words) ([5]; 30 mg/kg, compared with the blank vehicle or the condition before administration): can effectively reduce the number of coughs and prolong the cough latency | Mean cough latency ([5]; after administration, 30 mg/kg): 118.89 | Mean number of coughs ([5]; after administration, 30 mg/kg): 9.67 | Mean cough latency [5, 10]: 87.56 | Mean number of coughs [5, 10]: 19.56 | Ratio of quinine/water intake of rats (in words) ([6]; 5 mg/kg, 10 mg/kg and 20 mg/kg, compared with the blank vehicle): almost unaffected | Quinine/tap water* 100% ([6]; 5 mg/kg): 7.05% | Quinine/tap water* 100% ([6]; 10 mg/kg): 7.41% | Quinine/tap water* 100% ([6]; 20 mg/kg): 8.66% | Number of coughs during 10 min ([7]; 3 mg/kg oral, 2 h before ATP-citric acid exposure): 14.42 | Number of coughs during 10 min ([7]; 10 mg/kg oral, 2 h before ATP-citric acid exposure): 10.17 | Number of coughs during 10 min [7, 11]: 9.83 | Number of coughs / cough inhibition (in words) [7]: stronger cough inhibition effect than positive compound 2 | Number of coughs / cough inhibition (in words) ([7]; listed as compound 172): can significantly reduce the number of coughs; also recorded: inhibition in a dose-dependent manner | Folds of selectivity [8]: >85714

COc1cc(C(C)C)c(Oc2cnc(N)nc2N)cc1S(N)(=O)=O [AF-219, reference compound]
Dysgeusia (in words) [9]: serious dysgeusia | Efficacy for refractory cough (in words) [9]: relatively good efficacy for refractory cough | Cough inhibition ratio vs. vehicle (%) [7, 11]: 45.20% | Number of coughs during 10 min [7, 11]: 11.42
